# From PubChem BioAssay (NCI)
#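 96-well plates; 48 h exposure; 5 concentrations. Endpoints by linear interpolation between flanking doses. Not reached: highest tested concentration assigned. TGI: concentration producing complete growth inhibition.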
# Assays:
# Assay in all cases: inhibition of tumour cell growth, NCI panel, 48 h
# 786-0 renal = tested on: 786-0 renal
# A498 renal = tested on: A498 renal
# A549 NSCLC = tested on: A549 NSCLC
# ACHN renal = tested on: ACHN renal
# BT-549 breast = tested on: BT-549 breast
# CAKI-1 renal = tested on: CAKI-1 renal
# CCRF-CEM leukemia = tested on: CCRF-CEM leukemia
# COLO 205 colon = tested on: COLO 205 colon
# DU-145 prostate = tested on: DU-145 prostate
# EKVX NSCLC = tested on: EKVX NSCLC
# HCC-2998 colon = tested on: HCC-2998 colon
# HCT-116 colon = tested on: HCT-116 colon
# HCT-15 colon = tested on: HCT-15 colon
# HL-60(TB) leukemia = tested on: HL-60(TB) leukemia
# HOP-62 NSCLC = tested on: HOP-62 NSCLC
# HOP-92 NSCLC = tested on: HOP-92 NSCLC
# HS 578T breast = tested on: HS 578T breast
# HT29 colon = tested on: HT29 colon
# IGROV1 ovarian = tested on: IGROV1 ovarian
# KM12 colon = tested on: KM12 colon
# LOX IMVI melanoma = tested on: LOX IMVI melanoma
# M14 melanoma = tested on: M14 melanoma
# MALME-3M melanoma = tested on: MALME-3M melanoma
# MCF7 breast = tested on: MCF7 breast
# MDA-MB-231 breast = tested on: MDA-MB-231 breast
# MDA-MB-435 = tested on: MDA-MB-435
# MDA-N = tested on: MDA-N
# MOLT-4 leukemia = tested on: MOLT-4 leukemia
# NCI-H226 lung = tested on: NCI-H226 lung
# NCI-H23 lung = tested on: NCI-H23 lung
# NCI-H460 lung = tested on: NCI-H460 lung
# NCI-H522 lung = tested on: NCI-H522 lung
# NCI/ADR-RES ovarian = tested on: NCI/ADR-RES ovarian
# OVCAR-4 ovarian = tested on: OVCAR-4 ovarian
# OVCAR-5 ovarian = tested on: OVCAR-5 ovarian
# OVCAR-8 ovarian = tested on: OVCAR-8 ovarian
# PC-3 prostate = tested on: PC-3 prostate
# RXF 393 renal = tested on: RXF 393 renal
# SF-268 CNS = tested on: SF-268 CNS
# SF-295 CNS = tested on: SF-295 CNS
# SF-539 CNS = tested on: SF-539 CNS
# SK-MEL-2 melanoma = tested on: SK-MEL-2 melanoma
# SK-MEL-28 melanoma = tested on: SK-MEL-28 melanoma
# SK-MEL-5 melanoma = tested on: SK-MEL-5 melanoma
# SNB-19 CNS = tested on: SNB-19 CNS
# SNB-75 CNS = tested on: SNB-75 CNS
# SR leukemia = tested on: SR leukemia
# SW-620 colon = tested on: SW-620 colon
# T-47D breast = tested on: T-47D breast
# TK-10 renal = tested on: TK-10 renal
# U251 CNS = tested on: U251 CNS
# UACC-257 melanoma = tested on: UACC-257 melanoma
# UO-31 renal = tested on: UO-31 renal
# K-562 leukemia = tested on: K-562 leukemia
# OVCAR-3 ovarian = tested on: OVCAR-3 ovarian
# RPMI-8226 leukemia = tested on: RPMI-8226 leukemia
# SK-OV-3 ovarian = tested on: SK-OV-3 ovarian
# SN12C renal = tested on: SN12C renal
# UACC-62 melanoma = tested on: UACC-62 melanoma
compound,measurement,setting,value
CCOC(=O)CCc1c(C)[nH]c2c(C)c3c([nH]c4ccc(Cl)cc43)c(C)c2c1=O,TGI,786-0 renal,20.5 µM
same,TGI,A498 renal,33 µM
same,TGI,A549 NSCLC,23.5 µM
same,TGI,ACHN renal,28.9 µM
same,TGI,BT-549 breast,40.3 µM
same,TGI,CAKI-1 renal,49.5 µM
same,TGI,CCRF-CEM leukemia,> 100 µM
same,TGI,COLO 205 colon,89 µM
same,TGI,DU-145 prostate,> 100 µM
same,TGI,EKVX NSCLC,37.6 µM
same,TGI,HCC-2998 colon,30.5 µM
same,TGI,HCT-116 colon,38.7 µM
same,TGI,HCT-15 colon,54.5 µM
same,TGI,HL-60(TB) leukemia,22.3 µM
same,TGI,HOP-62 NSCLC,48.4 µM
same,TGI,HOP-92 NSCLC,67.1 µM
same,TGI,HS 578T breast,77.5 µM
same,TGI,HT29 colon,18.6 µM
same,TGI,IGROV1 ovarian,26.2 µM
same,TGI,KM12 colon,87 µM
same,TGI,LOX IMVI melanoma,23.3 µM
same,TGI,M14 melanoma,18.5 µM
same,TGI,MALME-3M melanoma,37.1 µM
same,TGI,MCF7 breast,37.7 µM
same,TGI,MDA-MB-231 breast,34.2 µM
same,TGI,MDA-MB-435,> 100 µM
same,TGI,MDA-N,> 100 µM
same,TGI,MOLT-4 leukemia,> 100 µM
same,TGI,NCI-H226 lung,46.5 µM
same,TGI,NCI-H23 lung,61.7 µM
same,TGI,NCI-H460 lung,6.11 µM
same,TGI,NCI-H522 lung,24.1 µM
same,TGI,NCI/ADR-RES ovarian,54 µM
same,TGI,OVCAR-4 ovarian,41.4 µM
same,TGI,OVCAR-5 ovarian,19.1 µM
same,TGI,OVCAR-8 ovarian,83.8 µM
same,TGI,PC-3 prostate,> 100 µM
same,TGI,RXF 393 renal,6.76 µM
same,TGI,SF-268 CNS,76.7 µM
same,TGI,SF-295 CNS,22.1 µM
same,TGI,SF-539 CNS,28.7 µM
same,TGI,SK-MEL-2 melanoma,14.4 µM
same,TGI,SK-MEL-28 melanoma,46.1 µM
same,TGI,SK-MEL-5 melanoma,> 100 µM
same,TGI,SNB-19 CNS,> 100 µM
same,TGI,SNB-75 CNS,30.9 µM
same,TGI,SR leukemia,> 100 µM
same,TGI,SW-620 colon,> 100 µM
same,TGI,T-47D breast,54.3 µM
same,TGI,TK-10 renal,37.2 µM
same,TGI,U251 CNS,43.4 µM
same,TGI,UACC-257 melanoma,30.5 µM
same,TGI,UO-31 renal,40.6 µM
O=c1cc(-c2nc3ccccc3[nH]2)[nH]c2nc(-c3nc4ccccc4[nH]3)cc(-c3ccc(Cl)cc3)c12,TGI,A549 NSCLC,87.2 µM
same,TGI,ACHN renal,41.6 µM
same,TGI,BT-549 breast,> 100 µM
same,TGI,CAKI-1 renal,76 µM
same,TGI,CCRF-CEM leukemia,91.6 µM
same,TGI,COLO 205 colon,24.6 µM
same,TGI,DU-145 prostate,> 100 µM
same,TGI,EKVX NSCLC,> 100 µM
same,TGI,HCT-116 colon,35.2 µM
same,TGI,HCT-15 colon,25.5 µM
same,TGI,HL-60(TB) leukemia,66.3 µM
same,TGI,HOP-62 NSCLC,54.7 µM
same,TGI,HOP-92 NSCLC,55 µM
same,TGI,HS 578T breast,> 100 µM
same,TGI,HT29 colon,42.5 µM
same,TGI,IGROV1 ovarian,25.5 µM
same,TGI,K-562 leukemia,68.8 µM
same,TGI,KM12 colon,64.4 µM
same,TGI,LOX IMVI melanoma,31.8 µM
same,TGI,M14 melanoma,62.5 µM
same,TGI,MALME-3M melanoma,71.2 µM
same,TGI,MCF7 breast,36.3 µM
same,TGI,MDA-MB-231 breast,35.7 µM
same,TGI,MDA-MB-435,35.3 µM
same,TGI,MDA-N,59.6 µM
same,TGI,MOLT-4 leukemia,96.4 µM
same,TGI,NCI-H226 lung,49.2 µM
same,TGI,NCI-H23 lung,> 100 µM
same,TGI,NCI-H460 lung,43.6 µM
same,TGI,NCI-H522 lung,26.1 µM
same,TGI,NCI/ADR-RES ovarian,91.3 µM
same,TGI,OVCAR-3 ovarian,63.4 µM
same,TGI,OVCAR-4 ovarian,95.4 µM
same,TGI,OVCAR-5 ovarian,54.3 µM
same,TGI,OVCAR-8 ovarian,> 100 µM
same,TGI,PC-3 prostate,> 100 µM
same,TGI,RPMI-8226 leukemia,44 µM
same,TGI,RXF 393 renal,35.8 µM
same,TGI,SF-268 CNS,47.5 µM
same,TGI,SF-295 CNS,48.2 µM
same,TGI,SF-539 CNS,31.8 µM
same,TGI,SK-MEL-2 melanoma,30.5 µM
same,TGI,SK-MEL-5 melanoma,30.9 µM
same,TGI,SK-OV-3 ovarian,46.1 µM
same,TGI,SN12C renal,46.9 µM
same,TGI,SNB-19 CNS,> 100 µM
same,TGI,SR leukemia,46.6 µM
same,TGI,SW-620 colon,54.1 µM
same,TGI,T-47D breast,83.5 µM
same,TGI,TK-10 renal,49 µM
same,TGI,U251 CNS,40 µM
same,TGI,UACC-257 melanoma,69.3 µM
same,TGI,UACC-62 melanoma,33.2 µM
same,TGI,UO-31 renal,33 µM
